What was measured:
P388 [1] = experiment: Anticancer activity against mouse P388 cells assessed as cell growth inhibition; format: functional, cell-based
HT-29 [2] = experiment: Anticancer activity against human HT-29 cells assessed as cell growth inhibition; format: functional, cell-based
A549 [3] = experiment: Anticancer activity against human A549 cells assessed as cell growth inhibition; format: functional, cell-based
SK-MEL-28 = experiment: Anticancer activity against human MEL-28 cells assessed as cell growth inhibition; format: functional, cell-based
L5178Y [4] = experiment: Anticancer activity against mouse L5178Y cells assessed as reduction in cell growth by [3H] Thymidine assay relative to control; format: functional, cell-based
L5178Y [5] = experiment: Anticancer activity against mouse L5178Y cells assessed as reduction in cell growth at 10 uG by [3H] Thymidine assay relative to control; format: functional; conditions: dose 10 µg
L5178Y [6] = experiment: Anticancer activity against mouse L5178Y cells assessed as reduction in cell growth at 3 uG by [3H] Thymidine assay relative to control; format: functional; conditions: dose 3 µg
HepG2 [7] = experiment: Anticancer activity against human HepG2 cells assessed as inhibition of cell growth; format: functional, cell-based
Caco-2 = experiment: Anticancer activity against human Caco-2 cells assessed as inhibition of cell growth; format: functional, cell-based
KB 3-1 = experiment: Anticancer activity against human KB 3-1 cells assessed as inhibition in cell growth; format: functional, cell-based
HCT-116 [8] = experiment: Anticancer activity against human HCT-116 cells assessed as inhibition of cell growth incubated for 72 hrs by MTT assay; format: functional, cell-based; conditions: HCT-116, 72 h
[9] = Antiproliferative activity against mouse Pheochromocytoma cells(MTT) assessed as reduction in relative cell viability at 25 uM incubated for 24 hrs by proliferation assay; format: functional
HeLa [10] = experiment: Antiproliferative activity against human HeLa cells assessed as cell viability measured after 24 hrs by MTT assay; format: functional, cell-based
[11] = Antiproliferative activity against mouse Pheochromocytoma cells(MTT) assessed as reduction in relative cell viability incubated for 24 hrs by proliferation assay; format: functional, cell-based
[12] = Antiproliferative activity against mouse Pheochromocytoma cells(MPC) assessed as reduction in relative cell viability at 25 uM incubated for 24 hrs by proliferation assay relative to control; format: functional
[13] = Antiproliferative activity against mouse Pheochromocytoma cells(MPC) assessed as reduction in relative cell viability at 50 uM incubated for 24 hrs by proliferation assay relative to control; format: functional
[14] = Antiproliferative activity against mouse Pheochromocytoma cells(MTT) assessed as reduction in relative cell viability at 50 uM incubated for 24 hrs by proliferation assay; format: functional
HCT-116 [15] = experiment: Anticancer activity against human HCT-116 cells assessed as reduction in cell viability measured after 72 hrs by MTT assay; conditions: HCT-116, 72 h
MDA-MB-231 [16] = experiment: Anticancer activity against human MDA-MB-231 cells assessed as reduction in cell viability measured after 72 hrs by MTT assay; format: functional, cell-based; conditions: MDA-MB-231, 72 h
HeLa [17] = experiment: Anticancer activity against human HeLa cells assessed as reduction in cell viability measured after 72 hrs by MTT assay
MCF7 [18] = experiment: Potency index, ratio of latrunculin IC50 to test compound IC50 for cytotoxicity against human MCF7 cells; format: functional
MCF7 [19] = experiment: Anticancer activity against human MCF7 cells assessed as inhibition of cell growth incubated for 72 hrs by MTT assay; format: functional, cell-based; conditions: MCF7, 72 h
[20] = Inhibition of actin (unknown origin) polymerization at 100 nM incubated for 20 mins in presence of ATP by ELISA analysis relative to control; conditions: Homo sapiens
Homo sapiens = species: Homo sapiens; experiment: Inhibition of actin (unknown origin) polymerization at 1 uM incubated for 20 mins in presence of ATP by ELISA analysis relative to control
MDA-MB-231 [21] = experiment: Anticancer activity against human MDA-MB-231 cells assessed as inhibition of cell growth incubated for 72 hrs by MTT assay; format: functional, cell-based; conditions: MDA-MB-231, 72 h
[22] = Inhibition of actin (unknown origin) polymerization incubated for 20 mins in presence of ATP by ELISA analysis; set-up: species or system Homo sapiens
HeLa [23] = experiment: Anticancer activity against human HeLa cells assessed as inhibition of cell growth incubated for 24 hrs by MTT assay; format: functional, cell-based
A549 [24] = experiment: Anticancer activity against human A549 cells assessed as inhibition of cell growth incubated for 24 hrs by MTT assay; format: functional, cell-based; conditions: A549, 24 h
MCF7 [25] = experiment: Anticancer activity against human MCF7 cells assessed as inhibition of cell growth incubated for 24 hrs by MTT assay; format: functional, cell-based; conditions: MCF7, 24 h
HCT-116 [26] = experiment: Anticancer activity against human HCT-116 cells assessed as inhibition of cell growth by MTS assay; format: functional, cell-based
HepG2 [27] = experiment: Anticancer activity against human HepG2 cells assessed as inhibition of cell growth incubated for 48 hrs by crystal violet staining based microplate reader analysis; format: functional; conditions: HepG2, 48 h
P388 [28] = experiment: Anticancer activity against mouse p-388 cells assessed as cell growth inhibition incubated for 3 days; format: functional, cell-based; conditions: P388, 72 h
HT-29 [29] = experiment: cells; conditions: Homo sapiens, HT-29, 72 h
Description: Anticancer activity against human HT-29 cells assessed as inhibition of cell growth measured after 72 hrs by SRB assay

A549 [30] = experiment: cells; conditions: Homo sapiens, A549, 72 h
Description: Anticancer activity against human A549 cells assessed as inhibition of cell growth measured after 72 hrs by SRB assay

MDA-MB-231 [31] = experiment: cells; conditions: Homo sapiens, MDA-MB-231, 72 h
Description: Anticancer activity against human MDA-MB-231 cells assessed as inhibition of cell growth measured after 72 hrs by SRB assay

BT-474 = experiment: Anticancer activity against human BT-474 cells assessed as cell growth inhibition incubated for 48 hrs by MTT assay; format: functional, cell-based; conditions: BT-474, 48 h
T47D = experiment: Anticancer activity against human T47D cells assessed as cell growth inhibition incubated for 48 hrs by MTT assay; format: functional, cell-based
MDA-MB-231 [32] = experiment: Anticancer activity against human MDA-MB-231 cells assessed as cell growth inhibition incubated for 48 hrs by MTT assay; format: functional, cell-based; conditions: MDA-MB-231, 48 h
SK-BR-3 = experiment: Anticancer activity against human SK-BR-3 cells assessed as cell growth inhibition incubated for 48 hrs by MTT assay; format: functional, cell-based; conditions: SK-BR-3, 48 h
MCF7 [33] = experiment: Anticancer activity against human MCF7 cells assessed as cell growth inhibition incubated for 48 hrs by MTT assay; format: functional, cell-based; conditions: MCF7, 48 h

C=C1CCC[C@@H]2[C@@](C)(CC[C@@]3(C)CCn4cnc5ncnc(c54)N3O)[C@H](C)CC[C@]12C
IC50 (P388 [1]): 0.24 µM
IC50 (HT-29 [2]): 0.12 µM
IC50 (A549 [3]): 0.12 µM
IC50 (SK-MEL-28): 0.24 µM

CC1(C)CCC[C@]2(C)[C@H]3C[C@@H](O)[C@]4(C)C5=C(COC5=O)[C@@H](O)C[C@H]4[C@]3(C)CC[C@@H]12
IC50 (L5178Y [4]): 0.0075 µM
inhibition (INH) (L5178Y [5]): 55.3%
inhibition (INH) (L5178Y [6]): 40.5%

CC1=CC[C@H]2[C@@H]([C@@H]1CC[C@H]1[C@]3(C)CC[C@H](O)C(C)(C)O[C@H]3CC[C@]1(C)O)C(C)(C)CC[C@]2(C)O [SIPHOLENOL L]
IC50 (HepG2 [7]): 24 µM
IC50 (Caco-2): 26.6 µM
IC50 (HT-29 [2]): 4.48 µM
IC50 (KB 3-1): 0.0051 µM

CC(C)[C@@H](C)/C=C/[C@@H](C)[C@H]1CC[C@H]2C3=C(CC[C@]12C)[C@@]1(C)CC[C@H](O)CC1=CC3=O
IC50 (HCT-116 [8]): 40 µM

COC1=C(Br)[C@H](O)[C@@]2(C=C1Br)CC(C(=O)NCCCCNC(=O)C1=NO[C@]3(C=C(Br)C(OC)=C(Br)[C@@H]3O)C1)=NO2 [AEROTHIONIN]
Activity [9]: 82.8%
IC50 (HeLa [10]): 29 µM
EC50 [11]: 48.1 µM
Activity [12]: 83.7%
Activity [13]: 55.1%
Activity [14]: 48.3%

O=c1[nH]cc(F)c(=O)[nH]1 [FLUOROURACIL]
IC50 (HCT-116 [15]): 4.6 µM
IC50 (MDA-MB-231 [16]): 13 µM
IC50 (HeLa [17]): 12.3 µM

C/C1=C/C(=O)O[C@@H]2C[C@@H](CC[C@H](C)/C=C\C=C\CC1)O[C@@](OCCc1ccccc1)([C@@H]1CSC(=O)N1)C2
Ratio IC50 (MCF7 [18]): 4.8
IC50 (MCF7 [19]): 0.1 µM
inhibition [20]: 31%
inhibition (Homo sapiens): 94%
IC50 (MDA-MB-231 [21]): 2.71 µM
IC50 [22]: 0.184 µM

C#C/C=C\CCCCCCCCCCC#CCCC(=O)NCCc1c[nH]c2ccccc12
IC50 (HeLa [23]): 17.4 µM
IC50 (A549 [24]): 25.9 µM
IC50 (MCF7 [25]): 34.1 µM

CO[C@H]1C[C@H](CC[C@H](C)[C@H](O)[C@H](C)[C@H]2OC(=O)/C=C/C(C)=C/C[C@@H](O)C[C@H]3C=CC[C@@H](C[C@H](OC)[C@@H](C)[C@@H](O)C[C@@H](O)[C@H](C)[C@@H]([C@@H](C)[C@@H](O)[C@@H](C)CC[C@H]4C[C@H](OC)C[C@H](C)O4)OC(=O)/C(C)=C/C[C@H](O)C[C@@H]4C=CC[C@@H](C[C@H](OC)[C@@H](C)[C@@H](O)C[C@@H](O)[C@@H]2C)O4)O3)O[C@@H](C)C1
IC50 (HCT-116 [26]): 0.365 µM

CC1=CCC2C(CC[C@@]2(C)O)C(C)(C)[C@@H]1CC[C@H]1[C@@](C)(O)CCC2OC(C)(C)C(=O)CC[C@@]21C (stereo partly specified)
IC50 (HepG2 [27]): 0.0069 µM

CC[C@H]1CCCC[C@@]2(C[C@@H]3CC[C@@H]4[C@H](C(=O)OCCCCCCCCCCCCCCCC(=O)N(CCCN)CCCCN)[C@]5(CCC[C@@H](C)O5)NC(=[N+]34)N2)O1
IC50 (P388 [28]): 0.1 µg/mL

CC[C@H](C)[C@@H]1NC(=O)[C@@H](C(O)C(C)C)NC(=O)[C@H](Cc2ccc(O)cc2)NC(=O)[C@H]([C@H](C)O)NC(=O)[C@@H](C)NC(=O)[C@H](CC(C)C)NC(=O)[C@H](Cc2ccc(O)cc2)NC(=O)[C@H](Cc2ccccc2)NC1=O (stereo partly specified)
IC50 (HT-29 [29]): 30 µM
IC50 (A549 [30]): 29 µM
IC50 (MDA-MB-231 [31]): 29 µM

O[C@]12CCCCCC[C@@H]3CCN4CCC[C@](O)(CCCCCC[C@@H]5CCN(CCC1)[C@H]2O5)[C@@H]4O3
IC50 (BT-474): 15.2 µM
IC50 (T47D): 46.1 µM
IC50 (MDA-MB-231 [32]): 15.2 µM
IC50 (SK-BR-3): 18.3 µM
IC50 (MCF7 [33]): 8.5 µM

Source: ChEMBL document CHEMBL5149985, “Discovery of cytotoxic natural products from Red Sea sponges: Structure and synthesis” (Eur J Med Chem, 2021)
